In brackets after ≈: the same amount, converted by molar mass.

Common to all, as to experiment: ≥ marks a high value that may be exact or a test limit, other limits are often not marked, values filed in µg/mL are converted to µM
Test [1] deals with Listeria monocytogenes LO28.
Test [2] relates to Cronobacter sakazakii DPC 6440.
Test [3] concerns Enterococcus faecalis CGMCC 1.595.
Test [4] concerns Lactococcus lactis AS1.1690.
In test [5] the test system is Bacillus cereus AS1.126.
The subject of test [6] is Enterococcus faecium CGMCC 1.2334.
The test system of test [7] is Pseudomonas aeruginosa CGMCC 1.860.
Test [8] relates to Escherichia coli AS1.349.
The subject of test [9] is Staphylococcus aureus AS1.72.
The subject of test [10] is Candida parapsilosis ATCC 22019.
The subject of test [11] is Candida albicans ATCC 24433.
For test [12], the system named is Staphylococcus aureus KCTC 1621.
The test system of test [13] is Pseudomonas aeruginosa KCTC 1637.
Test [14] deals with Escherichia coli KCTC 1682.
Test [15] has as its system Proteus vulgaris.
Test [16] has as its system Bacillus subtilis KCTC 1918.
The test system of test [17] is Bacillus megaterium KCTC 1096.
Test [18] concerns Escherichia coli ATCC 11775.
Test [19] concerns Botrytis cinerea.
Test [20] concerns Staphylococcus aureus ATCC 12600.
Test [21] has as its system Candida albicans ATCC 10231.
Test [22] relates to Pseudomonas corrugata DSM 7228.
Test [23] concerns Clavibacter michiganensis subsp. michiganensis DSM 46294.
Test [24] deals with Xanthomonas vesicatoria DSM 50861.
The subject of test [25] is Pseudomonas syringae pv. syringae DSM 10604.
The test system of test [26] is Pectobacterium carotovorum subsp. carotovorum DSM 30168.
The test system of test [27] is Pseudomonas syringae pv. tomato DC3000.
Test [28] deals with Escherichia coli ATCC 25922.
The subject of test [29] is Staphylococcus epidermidis ATCC 12228.

As to `CC[C@H](C)[C@H](NC(=O)[C@H](C)N)C(=O)N[C@@H](CCC(N)=O)C(=O)N1CCC[C@H]1C(=O)N[C@@H](CCCCN)C(=O)N[C@H](C(=O)N[C@@H](CCCCN)C(=O)N[C@H](C(=O)N[C@H](C(=O)N1CCC[C@H]1C(=O)N[C@@H](Cc1ccc(O)cc1)C(=O)N[C@H](C(=O)N[C@@H](CCCN=C(N)N)C(=O)N[C@@H](Cc1ccc(O)cc1)C(=O)N[C@@H](CC(C)C)C(=O)O)C(C)C)[C@@H](C)CC)C(C)C)[C@@H](C)O` [AIQPKTKVIPYVRYL], the MIC in test [1] and in test [2] was at least 78.1 µM each time.
Regarding `CC(C)[C@H](NC(=O)[C@H](CCCCN)NC(=O)[C@@H](N)CO)C(=O)N[C@@H](Cc1c[nH]c2ccccc12)C(=O)N[C@@H](CCCN=C(N)N)C(=O)N[C@@H](Cc1cnc[nH]1)C(=O)N[C@@H](Cc1c[nH]c2ccccc12)C(=O)O` [SKVWRHW], the MIC in test [3], in [4], in test [5], in test [6], in test [7] and in test [8] was at least 100 µM throughout. The MIC in test [9] is at least 100 µM.
Take `CC[C@H](C)[C@H](NC(=O)[C@@H](NC(=O)[C@H](CCCCN)NC(=O)[C@@H](NC(=O)[C@H](CCCCN)NC(=O)[C@@H]1CCCN1C(=O)[C@H](CCC(N)=O)NC(=O)[C@@H](NC(=O)[C@@H](N)Cc1c[nH]c2ccccc12)[C@@H](C)CC)[C@@H](C)O)C(C)C)C(=O)N[C@@H](C)C(=O)N[C@@H](Cc1ccc(O)cc1)C(=O)N[C@H](C(=O)N[C@@H](CCCN=C(N)N)C(=O)N[C@@H](Cc1ccc(O)cc1)C(=O)N[C@@H](CC(C)C)C(=O)O)C(C)C` [WIQPKTKVIAYVRYL]: the results for the MIC in test [1] and in test [2] were 2.44 µM (≈ 4.58 µg/mL) and at least 39.1 µM, respectively.
On to `CC[C@H](C)[C@H](NC(=O)[C@@H](N)Cc1c[nH]c2ccccc12)C(=O)N[C@@H](CCC(N)=O)C(=O)N1CCC[C@H]1C(=O)N[C@@H](CCCCN)C(=O)N[C@H](C(=O)N[C@@H](CCCCN)C(=O)N[C@H](C(=O)N[C@H](C(=O)N1CCC[C@H]1C(=O)N[C@@H](Cc1ccc(O)cc1)C(=O)N[C@H](C(=O)N[C@@H](C)C(=O)N[C@@H](Cc1ccc(O)cc1)C(=O)N[C@@H](CC(C)C)C(=O)O)C(C)C)[C@@H](C)CC)C(C)C)[C@@H](C)O` [WIQPKTKVIPYVAYL], for which the MIC in [1] was at least 156 µM; in test [2], at least 625 µM.
Regarding `CC[C@H](C)[C@H](NC(=O)[C@H](CC(C)C)NC(=O)[C@H](CCC(=O)O)NC(=O)[C@H](CO)NC(=O)[C@H](CCCN=C(N)N)NC(=O)[C@@H](N)CO)C(=O)N[C@H](C(=O)N[C@@H](Cc1cnc[nH]1)C(=O)N[C@@H](CCC(N)=O)C(=O)N[C@@H](CCCN=C(N)N)C(=O)N[C@@H](CC(C)C)C(=O)N[C@@H](Cc1ccccc1)C(N)=O)C(C)C` [SRSELIVHQRLF], the MIC in test [10] and in [11] was at least 269 µM in each case.
Turning to `CC[C@H](C)[C@H](NC(=O)[C@H](CCCCN)NC(=O)[C@H](CCCCN)NC(=O)[C@H](Cc1ccccc1)NC(=O)[C@@H](N)Cc1c[nH]c2ccccc12)C(=O)N1CCC[C@H]1C(=O)N[C@@H](CCCCN)C(=O)N[C@@H](Cc1ccccc1)C(=O)N[C@@H](CC(C)C)C(=O)N[C@@H](Cc1cnc[nH]1)C(=O)N[C@@H](CC(C)C)C(=O)N[C@@H](CC(C)C)C(=O)N[C@@H](CCCCN)C(=O)N[C@@H](CCCCN)C(=O)N[C@@H](Cc1ccccc1)C(N)=O` [WFKKIPKFLHLLKKF], the MIC amounted to 3.12 µM (≈ 6.16 µg/mL) in test [12]; 1.56 µM (≈ 3.08 µg/mL) in [13]; 3.12 µM (≈ 6.16 µg/mL) in [14]; 12.5 µM (≈ 24.7 µg/mL) in test [15]; 0.78 µM (≈ 1.54 µg/mL) in test [16]; 0.78 µM (≈ 1.54 µg/mL) in test [17].
Regarding `CC[C@H](C)[C@H](NC(=O)[C@@H]1CCCN1C(=O)[C@@H]1CCCN1C(=O)[C@@H](NC(=O)[C@H](Cc1cnc[nH]1)NC(=O)[C@@H](N)C(C)C)C(C)C)C(=O)N[C@H]1CSSC[C@@H](C(=O)N[C@@H](CCCN=C(N)N)C(=O)N[C@@H](CCCCN)C(=O)O)NC(=O)[C@H](CCC(=O)O)NC(=O)[C@H](CCCN=C(N)N)NC(=O)[C@H](Cc2cnc[nH]2)NC(=O)[C@H](CO)NC1=O` [VHVPPICSHRECRK], the MIC in test [18] is at least 200 µM; in test [19], at least 200 µM; in test [20], at least 200 µM; in test [21], above 200 µM.
As for `CC(C)C[C@H](NC(=O)[C@H](CCCN=C(N)N)NC(=O)[C@H](CCCCN)NC(=O)[C@H](Cc1ccccc1)NC(=O)[C@H](Cc1ccccc1)NC(=O)[C@H](CCCCN)NC(=O)[C@H](Cc1ccccc1)NC(=O)[C@H](CCCCN)NC(=O)[C@H](CCCCN)NC(=O)[C@H](CCCCN)NC(=O)[C@@H](N)CCCN=C(N)N)C(=O)N[C@@H](Cc1ccccc1)C(N)=O` [RKKKFKFFKRLF], the MIC was found to be 0.149 µM (≈ 0.25 µg/mL) in test [22]; 0.299 µM (≈ 0.5 µg/mL) in test [23]; 0.299 µM (≈ 0.5 µg/mL) in test [24]; 0.0598 µM (≈ 0.1 µg/mL) in test [25]; 5.98 µM (≈ 9.99 µg/mL) in test [26]; 5.98 µM (≈ 9.99 µg/mL) in test [27].
On to `CC[C@H](C)[C@H](NC(=O)CNC(=O)[C@@H](NC(=O)[C@H](C)NC(=O)[C@@H](NC(=O)[C@H](CCCCN)NC(=O)[C@@H]1CCCN1C(=O)[C@@H](NC(=O)[C@H](CCSC)NC(=O)[C@H](CO)NC(=O)[C@H](Cc1ccccc1)NC(=O)[C@@H](N)Cc1ccccc1)[C@@H](C)CC)[C@@H](C)CC)[C@@H](C)O)C(=O)N[C@@H](C)C(=O)N[C@@H](CO)C(=O)N[C@@H](CC(C)C)C(=O)N[C@H](C(=O)N[C@@H](CCCCN)C(=O)N[C@@H](CC(N)=O)C(=O)N[C@@H](CC(C)C)C(=O)O)C(C)C` [FFSMIPKIATGIASLVKNL], for which the results for the MIC in [11], in test [28] and in test [29] were at least 100 µM, above 100 µM and above 100 µM, respectively.
As to `CC[C@H](C)[C@H](NC(=O)[C@H](C)N)C(=O)N[C@@H](CC(N)=O)C(=O)N1CCC[C@H]1C(=O)N[C@@H](CCCCN)C(=O)N[C@@H](CO)C(=O)N[C@H](C(=O)N[C@@H](CCC(N)=O)C(=O)N[C@@H](CO)C(=O)N[C@@H](CC(C)C)C(=O)N[C@@H](CC(C)C)C(N)=O)C(C)C` [AINPKSVQSLL], the MIC in test [18] was at least 200 µM; in test [19], at least 200 µM; in [20] it was at least 200 µM; in test [21], above 200 µM.

The MIC is the lowest concentration found to suppress growth.
